# Entries after “also recorded” stand apart in the source; their conditions may differ.
# Experiment: Electrochemical corrosion rate measurement (Rp/Ec trend) in DSG water
# Conditions: DSG Water B, 100 ppm active
# Experimental: Electrochemical measurements were carried out using Gamry 600+ Potentiostat coupled with DC105™ Corrosion Techniques Software. Experiments were performed with a conventional three-electrode electrochemical cell and by employing the Rp/Ec trend technique. All tests were carried out for 24 hours at pH=8.2 to 8.8 and at T=22±0.2° C. (maintained with a recirculating water bath). A Teflon® liner was used to avoid filmer loss to the corrosion cell. The corrosion rates are measured in milli-inch per year (mpy). Pre-cleaned low carbon steel (LCS) coupons having a total surface area of 2.95 in^2 and a density of 7.87 g/cm^3 were used for testing the corrosion inhibitor treatments.
substance,measurement,setting,value
octenyl succinic acid [OSA],corrosion inhibition (FIG. 1),LCS coupons,inhibit corrosion; also recorded: not as robust as the Polyamine sample
same,corrosion rate (FIG. 2),"rate it increases to, 20 hours",8 mpy
